Measurements from ChEMBL document CHEMBL1149838, “Usimines A-C, bioactive usnic acid derivatives from the Antarctic lichen Stereocaulon alpinum” (J Nat Prod, 2008).

Target: T1, Tyrosine-protein phosphatase non-receptor type 1 (Homo sapiens, UniProt P18031)
T1 sequence (P18031 whole entry): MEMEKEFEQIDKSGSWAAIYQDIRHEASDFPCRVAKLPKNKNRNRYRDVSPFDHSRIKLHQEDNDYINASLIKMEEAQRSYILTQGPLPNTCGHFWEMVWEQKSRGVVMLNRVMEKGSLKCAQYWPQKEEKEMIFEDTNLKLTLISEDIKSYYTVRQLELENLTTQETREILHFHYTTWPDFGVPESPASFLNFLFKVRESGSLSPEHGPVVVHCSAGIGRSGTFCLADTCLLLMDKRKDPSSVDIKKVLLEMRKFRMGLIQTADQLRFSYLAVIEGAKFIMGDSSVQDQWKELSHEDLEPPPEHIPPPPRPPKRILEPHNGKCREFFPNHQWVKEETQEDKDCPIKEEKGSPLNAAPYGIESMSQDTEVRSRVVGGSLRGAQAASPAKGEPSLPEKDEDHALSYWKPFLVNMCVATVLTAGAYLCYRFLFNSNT
Assay: Inhibition of human recombinant PTP1B

CC(=O)c1c(O)c(C)c(O)c2c1OC1=CC(O)=C(/C(C)=N/[C@@H](CCC(=O)O)C(=O)O)C(=O)[C@@]12C [USIMINE B]
IC50: 27.7 µM

COC(=O)CC[C@H](/N=C(\C)C1=C(O)C=C2Oc3c(C(C)=O)c(O)c(C)c(O)c3[C@@]2(C)C1=O)C(=O)O [USIMINE A]
IC50: 15 µM

CC(=O)C1=C(O)C=C2Oc3c(C(C)=O)c(O)c(C)c(O)c3[C@@]2(C)C1=O [(+)-USNIC ACID]
IC50: 16.4 µM

CC(=O)c1c(O)c(C)c(O)c2c1OC1=CC(O)=C(/C(C)=N\[C@@H](CCC(=O)O)C(=O)O)C(=O)[C@@]12C [USIMINE C]
IC50: 23.2 µM
